Values after ≈ are worked out from the molar mass of the structure shown.
Test system: not listed separately
Experiment: Selectivity ratio of cytotoxicity against human WI38 cells to MIC for Klebsiella pneumoniae M6
Format: toxicity, cell-based
Settings: not given
Work on `COc1cc2c(cc1OCCCC(=O)Nc1cc(C(=O)Nc3ccc4sc(C(=O)N5CCSCC5)cc4c3)n(C)c1)N=C[C@@H]1CCCN1C2=O` yielded a selectivity ratio of 10.

Test system: Staphylococcus aureus
Experiment: Antibacterial activity against methicillin resistant Staphylococcus aureus NCTC 13616 by microdilution broth method
Format: functional
Settings: not given
With `COc1cc2c(cc1OCCCC(=O)Nc1cc(C(=O)Nc3ccc4sc(C(=O)N5CCSCC5)cc4c3)n(C)c1)N=C[C@@H]1CCCN1C2=O` the MIC was no more than 0.125 µg/mL.

Test system: not listed separately
Experiment: Selectivity ratio of cytotoxicity against human WI38 cells to MIC for methicillin sensitive Staphylococcus aureus NCTC 6571
Format: toxicity, cell-based
Settings: not given
`COc1cc2c(cc1OCCCC(=O)Nc1cc(C(=O)Nc3ccc4sc(C(=O)N5CCSCC5)cc4c3)n(C)c1)N=C[C@@H]1CCCN1C2=O` gave a selectivity ratio of 100.

Test system: not listed separately
Experiment: Selectivity ratio of cytotoxicity against human WI38 cells to MIC for methicillin resistant Staphylococcus aureus NCTC 13616
Format: toxicity, cell-based
Settings: not given
Molecule `COc1cc2c(cc1OCCCC(=O)Nc1cc(C(=O)Nc3ccc4sc(C(=O)N5CCSCC5)cc4c3)n(C)c1)N=C[C@@H]1CCCN1C2=O` has a selectivity ratio of 100.

Test system: Pseudomonas aeruginosa
Experiment: Antimicrobial activity against Pseudomonas aeruginosa PAO1 by microdilution broth method
Format: functional
Settings: not given
`COc1cc2c(cc1OCCCC(=O)Nc1cc(C(=O)Nc3ccc4sc(C(=O)N5CCSCC5)cc4c3)n(C)c1)N=C[C@@H]1CCCN1C2=O` gave an MIC of 64 µg/mL (≈ 89.5 µM).

Test system: Staphylococcus aureus
Experiment: Antibacterial activity against methicillin resistant Staphylococcus aureus NCTC 13277 by microdilution broth method
Format: functional
Settings: not given
For `COc1cc2c(cc1OCCCC(=O)Nc1cc(C(=O)Nc3ccc4sc(C(=O)N5CCSCC5)cc4c3)n(C)c1)N=C[C@@H]1CCCN1C2=O`, the MIC was no more than 0.125 µg/mL.

Test system: not listed separately
Experiment: Selectivity ratio of cytotoxicity against human WI38 cells to MIC for multidrug-resistant Klebsiella pneumoniae NCTC 13368
Format: toxicity, cell-based
Settings: not given
`COc1cc2c(cc1OCCCC(=O)Nc1cc(C(=O)Nc3ccc4sc(C(=O)N5CCSCC5)cc4c3)n(C)c1)N=C[C@@H]1CCCN1C2=O` showed a selectivity ratio of 10.

Test system: not listed separately
Experiment: Selectivity ratio of cytotoxicity against human WI38 cells to MIC for multidrug-resistant Pseudomonas aeruginosa NCTC 13437
Format: toxicity, cell-based
Settings: not given
Molecule `COc1cc2c(cc1OCCCC(=O)Nc1cc(C(=O)Nc3ccc4sc(C(=O)N5CCSCC5)cc4c3)n(C)c1)N=C[C@@H]1CCCN1C2=O` has a selectivity ratio of 10.

Test system: Acinetobacter baumannii
Experiment: Antimicrobial activity against Acinetobacter baumannii ATCC 17978 by microdilution broth method
Format: functional
Settings: not given
For `COc1cc2c(cc1OCCCC(=O)Nc1cc(C(=O)Nc3ccc4sc(C(=O)N5CCSCC5)cc4c3)n(C)c1)N=C[C@@H]1CCCN1C2=O`, the MIC was 2 µg/mL (≈ 2.8 µM).

Test system: not listed separately
Experiment: Selectivity ratio of cytotoxicity against human WI38 cells to MIC for methicillin resistant Staphylococcus aureus NCTC 13277
Format: toxicity, cell-based
Settings: not given
Molecule `COc1cc2c(cc1OCCCC(=O)Nc1cc(C(=O)Nc3ccc4sc(C(=O)N5CCSCC5)cc4c3)n(C)c1)N=C[C@@H]1CCCN1C2=O` has a selectivity ratio of 100.

Test system: DNA
Experiment: Stabilization of 5'-FAM-TAT-ATA-TAG-ATA-TTT-TTT-TAT-CTA-TAT-ATA-3'-TAMRA DNA (unknown origin) assessed as reduction in change in melting temperature at 1:1 to 5:1 ligand to DNA ratio measured after 3 hrs by FRET-based assay relative to control
Format: ADME, nucleic-acid assay
Settings: not given
With `COc1cc2c(cc1OCCCC(=O)Nc1cc(C(=O)Nc3ccc4sc(C(=O)N5CCSCC5)cc4c3)n(C)c1)N=C[C@@H]1CCCN1C2=O` the fold change (FC) was 3 to 4.

Test system: not listed separately
Experiment: Selectivity ratio of cytotoxicity against human WI38 cells to MIC for multidrug-resistant Acinetobacter baumannii AYE
Format: toxicity, cell-based
Settings: not given
Work on `COc1cc2c(cc1OCCCC(=O)Nc1cc(C(=O)Nc3ccc4sc(C(=O)N5CCSCC5)cc4c3)n(C)c1)N=C[C@@H]1CCCN1C2=O` yielded a selectivity ratio of 10.

Test system: Enterococcus faecalis
Experiment: Antibacterial activity against vancomycin sensitive Enterococcus faecalis NCTC 775 by microdilution broth method
Format: functional
Settings: not given
For `COc1cc2c(cc1OCCCC(=O)Nc1cc(C(=O)Nc3ccc4sc(C(=O)N5CCSCC5)cc4c3)n(C)c1)N=C[C@@H]1CCCN1C2=O`, the MIC was no more than 0.125 µg/mL.

Test system: not listed separately
Experiment: Selectivity ratio of cytotoxicity against human WI38 cells to MIC for vancomycin resistant Enterococcus faecalis NCTC 12201
Format: toxicity, cell-based
Settings: not given
Molecule `COc1cc2c(cc1OCCCC(=O)Nc1cc(C(=O)Nc3ccc4sc(C(=O)N5CCSCC5)cc4c3)n(C)c1)N=C[C@@H]1CCCN1C2=O` has a selectivity ratio of 100.

Test system: Enterococcus faecium
Experiment: Antibacterial activity against vancomycin resistant Enterococcus faecium NCTC 12204 by microdilution broth method
Format: functional
Settings: not given
`COc1cc2c(cc1OCCCC(=O)Nc1cc(C(=O)Nc3ccc4sc(C(=O)N5CCSCC5)cc4c3)n(C)c1)N=C[C@@H]1CCCN1C2=O` showed an MIC of no more than 0.125 µg/mL.

Test system: Enterococcus faecalis
Experiment: Antibacterial activity against vancomycin resistant Enterococcus faecalis NCTC 12201 by microdilution broth method
Format: functional
Settings: not given
For `COc1cc2c(cc1OCCCC(=O)Nc1cc(C(=O)Nc3ccc4sc(C(=O)N5CCSCC5)cc4c3)n(C)c1)N=C[C@@H]1CCCN1C2=O`, the MIC was no more than 0.125 µg/mL.

Test system: not listed separately
Experiment: Selectivity ratio of cytotoxicity against human WI38 cells to MIC for vancomycin resistant Enterococcus faecium NCTC 12204
Format: toxicity, cell-based
Settings: not given
Molecule `COc1cc2c(cc1OCCCC(=O)Nc1cc(C(=O)Nc3ccc4sc(C(=O)N5CCSCC5)cc4c3)n(C)c1)N=C[C@@H]1CCCN1C2=O` has a selectivity ratio of 100.

Test system: DNA
Experiment: Stabilization of 5'-FAM-TAT-AGA-TAT-AGA-TAT-TTT-ATA-TCT-ATA-TCT-ATA-3'-TAMRA DNA (unknown origin) assessed as reduction in change in melting temperature at 1:1 to 5:1 ligand to DNA ratio measured after 3 hrs by FRET-based assay relative to control
Format: ADME, nucleic-acid assay
Settings: not given
Work on `COc1cc2c(cc1OCCCC(=O)Nc1cc(C(=O)Nc3ccc4sc(C(=O)N5CCSCC5)cc4c3)n(C)c1)N=C[C@@H]1CCCN1C2=O` yielded a fold change (FC) of 3 to 4.

Test system: not listed separately
Experiment: Selectivity ratio of cytotoxicity against human WI38 cells to MIC for vancomycin sensitive Enterococcus faecalis NCTC 775
Format: toxicity, cell-based
Settings: not given
With `COc1cc2c(cc1OCCCC(=O)Nc1cc(C(=O)Nc3ccc4sc(C(=O)N5CCSCC5)cc4c3)n(C)c1)N=C[C@@H]1CCCN1C2=O` the selectivity ratio was 100.

Test system: Staphylococcus aureus
Experiment: Antibacterial activity against methicillin sensitive Staphylococcus aureus NCTC 6571 by microdilution broth method
Format: functional
Settings: not given
`COc1cc2c(cc1OCCCC(=O)Nc1cc(C(=O)Nc3ccc4sc(C(=O)N5CCSCC5)cc4c3)n(C)c1)N=C[C@@H]1CCCN1C2=O` showed an MIC of no more than 0.125 µg/mL.

Test system: not listed separately
Experiment: Cytotoxicity against human WI38 cells assessed as cell viability at 20 uM measured after 24 hrs by MTT assay relative to control
Format: cell-based, WI-38
Settings: read-out: Activity
For `COc1cc2c(cc1OCCCC(=O)Nc1cc(C(=O)Nc3ccc4sc(C(=O)N5CCSCC5)cc4c3)n(C)c1)N=C[C@@H]1CCCN1C2=O`, the viability at 24 h, 20 µM was greater than 85%.

Test system: not listed separately
Experiment: Selectivity ratio of cytotoxicity against human WI38 cells to MIC for Acinetobacter baumannii ATCC 17978
Format: toxicity, cell-based
Settings: not given
In the case of `COc1cc2c(cc1OCCCC(=O)Nc1cc(C(=O)Nc3ccc4sc(C(=O)N5CCSCC5)cc4c3)n(C)c1)N=C[C@@H]1CCCN1C2=O`, the selectivity ratio is reported as 10.

Test system: not listed separately
Experiment: Selectivity ratio of cytotoxicity against human WI38 cells to MIC for Pseudomonas aeruginosa PAO1
Format: toxicity, cell-based
Settings: not given
In the case of `COc1cc2c(cc1OCCCC(=O)Nc1cc(C(=O)Nc3ccc4sc(C(=O)N5CCSCC5)cc4c3)n(C)c1)N=C[C@@H]1CCCN1C2=O`, the selectivity ratio is reported as 10.

Source: ChEMBL document CHEMBL4610120, “New Broad-Spectrum Antibiotics Containing a Pyrrolobenzodiazepine Ring with Activity against Multidrug-Resistant Gram-Negative Bacteria” (J Med Chem, 2020)
